Data: the NIST ThermoML archive (doi:10.1016/j.tca.2012.07.004)

How the values were obtained:
[1] = 101 kPa, Liquid; for mass density: Vibrating tube method; for viscosity: Vibrating wire viscometry; for speed of sound: ultrasonic interferometer
[2] = xn = mol fraction of the nth substance listed; settings: 101 kPa, Liquid, x2 = 0; for mass density: Vibrating tube method; for viscosity: Vibrating wire viscometry; for speed of sound: ultrasonic interferometer

CN1CCCC1=O [N-methylpyrrolidone]
[1]
Settings	mass density [kg/m3]	speed of sound [m/s]	viscosity [mPa·s]
298.15 K	1025.9	1572	1.66
303.15 K	1023.74	1552	1.49
308.15 K	1019.25	1528	1.39
313.15 K	1014.74	1520	1.31

CC(=O)[O-].C[NH+](C)C [trimethylammonium acetate]
[1]
Settings	mass density [kg/m3]	speed of sound [m/s]	viscosity [mPa·s]
298.15 K	1053.85	1544	2.76
303.15 K	1049.87	1514	2.37
308.15 K	1045.81	1508	2.06
313.15 K	1041.7	1490	1.83

CN1CCCC1=O [N-methylpyrrolidone] + CC(=O)[O-].C[NH+](C)C
[2]
Settings	mass density [kg/m3]	speed of sound [m/s]	viscosity [mPa·s]
298.15 K	1025.9	1572	1.66
303.15 K	1023.74	1552	1.49
308.15 K	1019.25	1528	1.39
313.15 K	1014.74	1520	1.31

C[NH+](C)C.O=P([O-])(O)O [trimethylammonium dihydrogen phosphate]
[1]
Settings	mass density [kg/m3]	speed of sound [m/s]	viscosity [mPa·s]
298.15 K	1353.61	1672	7.64
303.15 K	1350.62	1660	6.46
308.15 K	1347.59	1661	5.61
313.15 K	1344.53	1664	5.07

CN1CCCC1=O [N-methylpyrrolidone] + C[NH+](C)C.O=P([O-])(O)O
[2]
Settings	mass density [kg/m3]	speed of sound [m/s]	viscosity [mPa·s]
298.15 K	1025.9	1572	1.66
303.15 K	1023.74	1552	1.49
308.15 K	1019.25	1528	1.39
313.15 K	1014.74	1520	1.31

CN1CCCC1=O [N-methylpyrrolidone] + CCN(CC)CC.O=P(O)(O)O
[2]
Settings	mass density [kg/m3]	speed of sound [m/s]	viscosity [mPa·s]
298.15 K	1025.9	1572	1.66
303.15 K	1023.74	1552	1.49
308.15 K	1019.25	1528	1.39
313.15 K	1014.74	1520	1.31

CCN(CC)CC.O=P(O)(O)O [triethylammonium dihydrogen phosphate]
[1]
Settings	mass density [kg/m3]	speed of sound [m/s]	viscosity [mPa·s]
298.15 K	1125.7	1794	64.31
303.15 K	1124.68	1769	57.1
308.15 K	1123.71	1757	49.53
313.15 K	1122.37	1730	38.31

C[NH+](C)C.O=S(=O)([O-])O [trimethylammonium hydrogen sulfate]
[1]
Settings	mass density [kg/m3]	speed of sound [m/s]	viscosity [mPa·s]
298.15 K	1467.58	1564	5.1
303.15 K	1463.56	1560	4.48
308.15 K	1463.5	1556	3.94
313.15 K	1455.63	1552	3.16

CN1CCCC1=O [N-methylpyrrolidone] + C[NH+](C)C.O=S(=O)([O-])O
[2]
Settings	mass density [kg/m3]	speed of sound [m/s]	viscosity [mPa·s]
298.15 K	1025.9	1572	1.66
303.15 K	1023.74	1552	1.49
308.15 K	1019.25	1528	1.39
313.15 K	1014.74	1520	1.31
